The values that follow come from patent US20260124309A1, “STAT6 DEGRADERS AND USES THEREOF” (Kymera Therapeutics, Inc., priority 2023, published 2026).

Experiment [1] has as its target T1, biotinylated truncated STAT6 (123-632)-avi (Homo sapiens, UniProt P42226).
T1 construct: biotinylated truncated STAT6 (123-632)-avi purified from E. coli; made in house; host or cells: E. coli
T1 sequence (P42226 123-632 limits assumed): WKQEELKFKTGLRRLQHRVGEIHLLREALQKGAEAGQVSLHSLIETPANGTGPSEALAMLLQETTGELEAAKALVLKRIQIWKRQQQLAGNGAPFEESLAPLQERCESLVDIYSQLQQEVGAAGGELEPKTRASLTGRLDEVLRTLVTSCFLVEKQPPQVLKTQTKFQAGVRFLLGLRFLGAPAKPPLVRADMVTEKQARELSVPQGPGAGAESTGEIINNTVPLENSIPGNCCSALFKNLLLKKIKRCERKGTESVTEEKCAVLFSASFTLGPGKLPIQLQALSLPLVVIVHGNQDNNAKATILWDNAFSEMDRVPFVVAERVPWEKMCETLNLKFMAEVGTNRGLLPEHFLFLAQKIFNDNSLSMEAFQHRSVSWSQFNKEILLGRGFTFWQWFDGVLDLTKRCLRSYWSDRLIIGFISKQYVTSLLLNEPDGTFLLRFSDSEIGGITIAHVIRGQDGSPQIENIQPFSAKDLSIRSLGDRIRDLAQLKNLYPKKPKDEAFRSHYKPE
The experiment can be described thus: STAT6 HTRF binding assay. Conditions: 0.15 nM biotinylated truncated STAT6 (123-632)-avi, 20 nM fluorescein-labeled probe. How it is done: HTRF binding assays were performed using 0.15 nM biotinylated truncated STAT6 (123-632)-avi purified from E. coli, 1× Streptavidin-terbium (CisBio) prepared by mixing SA-Tb in PPI detection buffer (CisBio), 20 nM proprietary fluorescein-labeled probe, and test compounds in assay buffer consisting of 50 mM HEPES-Na pH 7.5, 100 mM NaCl, 1 mM EDTA, 2 mM DTT, 0.1% Tween-20 with a final volume of 20 uL. Compound stocks were dissolved at 10 mM in 100% DMSO and 11 point titration with 3 fold serial dilution was performed in white, opaque 384 well microplates. Reaction plates were incubated at room temperature for 30 minutes. Plates were centrifuged at low rpm for 5 mins, and the ratio of fluorescence intensities were measured at emission wavelengths for fluorescein acceptor (520 nm) and terbium donor (495 nm) on Envision Plate reader. % Inhibition was calculated from the 520/495 ratio generated by using proprietary positive control compound for 100% inhibition and DMSO only reactions for 0% inhibition. Data was processed and dose response curves were generated using GraphPad Prism to determine the concentration required for inhibiting 50% of the HTRF signal (IC50).
The letter codes for IC50 (μM) include: A (<0.1 μM); B (0.1-1 μM); C (>1-10 μM); D (>10-100 μM); E (>100 μM); and F (not tested).

The target of experiment [2] is T2, STAT6 (Homo sapiens, UniProt P42226).
T2 construct: endogenous in cells; host or cells: A549
T2 sequence (P42226 1-847): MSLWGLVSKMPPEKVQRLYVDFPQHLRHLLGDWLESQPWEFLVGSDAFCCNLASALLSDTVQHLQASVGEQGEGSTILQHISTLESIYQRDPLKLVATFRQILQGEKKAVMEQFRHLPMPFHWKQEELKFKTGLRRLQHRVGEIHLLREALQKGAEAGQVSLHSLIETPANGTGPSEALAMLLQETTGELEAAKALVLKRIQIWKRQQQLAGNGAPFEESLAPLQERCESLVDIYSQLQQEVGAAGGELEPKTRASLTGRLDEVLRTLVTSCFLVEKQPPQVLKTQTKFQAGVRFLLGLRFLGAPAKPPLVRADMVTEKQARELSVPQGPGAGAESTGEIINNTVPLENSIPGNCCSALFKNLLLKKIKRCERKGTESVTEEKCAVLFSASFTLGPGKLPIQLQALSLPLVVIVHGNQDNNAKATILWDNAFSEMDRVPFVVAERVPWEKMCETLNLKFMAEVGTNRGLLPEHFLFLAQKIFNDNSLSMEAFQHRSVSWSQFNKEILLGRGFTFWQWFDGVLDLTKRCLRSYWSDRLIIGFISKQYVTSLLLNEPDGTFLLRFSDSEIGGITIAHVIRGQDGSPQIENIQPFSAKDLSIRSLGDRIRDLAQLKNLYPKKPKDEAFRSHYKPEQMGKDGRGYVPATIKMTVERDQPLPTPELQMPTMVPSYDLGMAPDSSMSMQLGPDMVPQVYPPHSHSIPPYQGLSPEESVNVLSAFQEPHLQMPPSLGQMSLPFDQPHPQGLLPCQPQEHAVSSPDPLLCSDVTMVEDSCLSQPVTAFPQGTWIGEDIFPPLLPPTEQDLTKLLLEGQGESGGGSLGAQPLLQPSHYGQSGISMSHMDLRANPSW
The experiment can be described thus: STAT6 MSD degradation in A549 cells. Type of experiment: cell-based. The conditions noted are these: 24 h. How it is done: Degradation of STAT6 in cells was quantitatively measured using Meso Scale Discovery (MSD) technology. A549 cells were seeded in 96-well plates with a density of 1.5×10e4 to 5×10e5 cells per well in 100 μl fresh media. Compounds were then added to the assay plates with a final top concentration of up to 10 uM in a 1:3 dilution series with total of 9 doses. The assay plates were then incubated for 4 to 24 hours at 37° C. under 5% CO2. The assay plates were then centrifuged for 5 minutes and the cell pellets were treated with 100 μl/well RIPA lysis buffer (Boston Bioproducts, BP-115D) with protease and phosphatase inhibitors (Roche, 05892791001 and 04906837001). To prepare the MSD assay plates (MSD, L15XA), the plates were coated with the capture antibody (Abnova, H00006778) in PBS, at 40 μl/well. The plates were then incubated overnight at 4° C., washed 1 time with 150 μl/well TBST buffer (Cell Signaling Technology, #9997S) and blocked with 150 μl/well blocking buffer (MSD, R93BA-4). Cell lysates were then added to MSD assay plates and the plates were incubated at room temperature for 1 hour. The plates were then washed 3 times with 150 μl/well TBST buffer and 25 μl/well primary detection antibody (Cell Signaling Technology, #5397S). The assay plates were then incubated at room temperature for 1 hour, washed 3 times with 150 μl/well TBST buffer, and 25 μl/well secondary detection antibody, SULFO-TAG anti-rabbit antibody (MSD, R32AB-1) were added. The assay plates were then incubated at room temperature for 1 hour, washed 3 times with 150 μl/well TBST buffer, and 150 μl/well MSD reading buffer (MSD, R92TC-2) were added. The plates were then analyzed by an MSD reader. The data was analyzed by GraphPad Prism and the dose dependent STAT6 degradation was fit using the four-parameter inhibitor vs. response nonlinear regression.
The letter codes for DC50 (nM) include: A (<1 nM); B (1-10 nM); C (>10-100 nM); D (>100-1000 nM); E (>1000 nM); and F (not tested). The letter codes for Dmax (oo) include: A (>90%); B (>70-90%); C (>50-70%); D ([…]); and F (not tested).

SMILES strings stand for the structures. A value given as a limit tells only on which side of the number the result lay.

Consider `COc1cc(N2CCC(c3ccc(-c4cc(C5=CCCN(C(=O)CCn6cccn6)C5)c(F)c5[nH]c(C(=O)N(C)C)cc45)c(OC(F)(F)F)c3)CC2)c(F)cc1N[C@H]1CCC(=O)NC1=O` (single isomer, unassigned) [Example I-793], for which the concentration for half-maximal inhibition (IC50) – broadly, the concentration at which inhibition is half-maximal – in experiment [1] (HTRF binding) is below 100 nM. Further, in experiment [2], the DC50 (commonly the concentration giving 50% degradation) was in the range of 1 to 10 nM and the Dmax (as a rule, the greatest extent of degradation seen) was 70 to 90%.
The corresponding values for `CC(=O)N1CCC=C(c2cc(-c3ccc(C4CCN(c5cccc6c5n(C)c(=O)n6C5CCC(=O)NC5=O)CC4)cc3C)c3cc(C(=O)N(C)C)[nH]c3c2F)C1` (stereo not drawn) [Example I-455, 6-(1-Acetyl-1,2,5,6-tetrahydropyridin-3-yl)-4-(4-(1-(1-(2,6-dioxopiperidin-3-yl)-3-methyl-2-oxo-2,3-dihydro-1H-benzo[d]1734midazole-4-yl)piperidin-4-yl)-2-methylphenyl)-7-fluoro-N,N-dim ethyl-1H-indole-2-carboxamide] are 1000 to 10000 nM, below 1 nM and above 90%.
On the same counts, the results for `CN(C)C(=O)c1cc2c(-c3ccc(C4CCN(c5ccc(N[C@H]6CCC(=O)NC6=O)cc5F)CC4)cc3)cc(C3=CCCN(C(=O)CCn4cccn4)C3)c(F)c2[nH]1` (single isomer, unassigned) [Example I-796] are below 100 nM, below 1 nM and 70 to 90%.
Regarding `CN(C)C(=O)c1cc2c(F)c(C3CCCN(C(=O)CCn4cccn4)C3)cc(-c3ccc(N4CCN(CCc5ccc(C6CCC(=O)NC6=O)c(Cl)c5)CC4)cc3)c2o1` (single isomer, unassigned) [Example I-281], the IC50 in experiment [1] (30 minutes at room temperature) lay in the range of 100 to 1000 nM. In experiment [2], this compound registered a DC50 of 10 to 100 nM and a Dmax of 70 to 90%.
Take `COc1cc(N2CCN(c3ccc(-c4cc(C5=CCCN(C(=O)CCn6cccn6)C5)c(F)c5[nH]c(C(=O)N(C)C)cc45)cc3)CC2)c(F)cc1N[C@@H]1CCC(=O)NC1=O` (single isomer, unassigned) [Example I-794]: in experiment [2], the half-maximal degradation concentration (DC50) was below 1 nM and the Dmax lay in the range of 70 to 90%.
The compound `COc1cc(N2CCN(c3ccc(-c4cc(C5=CCCN(C(=O)CCn6cccn6)C5)c(F)c5[nH]c(C(=O)N(C)C)cc45)c(F)c3F)CC2)c(F)cc1N[C@@H]1CCC(=O)NC1=O` (single isomer, unassigned) [Example I-744] gave an IC50 in experiment [1] (HTRF binding) below 100 nM. In experiment [2], the DC50 was below 1 nM and the Dmax was above 90%.
`CN(C)C(=O)c1cc2c(F)c(C3=CCCN(C(=O)CCn4cccn4)C3)cc(-c3ccc(C4CN(C(=O)c5ccc(Cl)c(C6CCC(=O)NC6=O)c5)C4)cc3)c2o1` (stereo not drawn) [Example I-495, 5-(1-(3-(1H-pyrazol-1-yl)propanoyl)-1,2,5,6-tetrahydropyridin-3-yl)-7-(4-(1-(4-chloro-3-(2,6-dioxopiperidin-3-yl)benzoyl)azetidin-3-yl)phenyl)-4-fluoro-N,N-dimethylbenzofuran-2-carboxamide] showed an IC50 in experiment [1] (HTRF binding) below 100 nM. In experiment [2], this compound showed a DC50 of 10 to 100 nM and a Dmax of 50 to 70%.
The corresponding values for `COc1cc(N2CCN(c3ccc(-c4cc(C5=CCCN(C(=O)CCn6cccn6)C5)c(F)c5[nH]c(C(=O)N(C)C)cc45)c(F)c3F)CC2)c(F)cc1N[C@H]1CCC(=O)NC1=O` (single isomer, unassigned) [Example I-745] are below 100 nM, below 1 nM and above 90%.
Consider `CN(C)C(=O)c1cc2c(-c3ccc(C4CCN(c5ccc([C@@H]6CCC(=O)NC6=O)cc5F)CC4)cc3)cc(C3=CCCN(C(=O)CCn4cccn4)C3)c(F)c2[nH]1` (single isomer, unassigned) [Example I-742], for which the IC50 in experiment [1] (HTRF binding) is below 100 nM. Further, in experiment [2], the DC50 was below 1 nM and the Dmax is above 90%.
`COc1cc(N2CCN(CCCCCCCCN(C(=O)[C@H]3CCCN(c4cncc5ccccc45)C3)c3ccc(=O)n(CC(=O)O)c3)CC2)ccc1-c1cc(C2=CCCN(C(=O)CCn3ccnn3)C2)c(F)c2[nH]c(C(=O)N(C)C)cc12` [Example I-1076, (S)-2-(5-(N-(8-(4-(4-(6-(l-(3-(1H-1,2,3-triazol-1-yl)propanoyl)-1,2,5,6-tetrahydropyridin-3-yl)-2-(dimethylcarbamoyl)-7-fluoro-LH-indol-4-yl)-3-methoxyphenyl)piperazin-1-yl)octyl)-1-(isoquinolin-4-yl)piperidine-3-carboxamido)-2-oxopyridin-1 (2H)-yl)acetic acid]: the IC50 in experiment [1] (HTRF binding) is below 100 nM. Also, in experiment [2], the DC50 was in the range of 10 to 100 nM and the greatest degradation seen (Dmax) was 50 to 70%.
Regarding `COc1cc(N2CCN(CCOCC3CCN(c4ccnc(N5CC[C@@H]6[C@H]5CCCN6c5cccc(F)c5)c4)CC3)CC2)ccc1-c1cc(C2=CCCN(C(=O)CCn3ccnn3)C2)c(F)c2[nH]c(C(=O)N(C)C)cc12` [Example I-1049, 4-[4-(4-{2-[(1-{2-[(3aR,7aR)-4-(3-fluorophenyl)-hexahydro-2H-pyrrolo[3,2-b]pyridin-1-yl]pyridin-4-yl}piperidin-4-yl)methoxy]ethyl}piperazin-1-yl)-2-methoxyphenyl]-7-fluoro-N,N-dimethyl-6-{1-[3-(1,2,3-triazol-1-yl)propanoyl]-5,6-dihydro-2H-pyridin-3-yl}-1H-indole-2-carboxamide], the IC50 in experiment [1] (HTRF binding) is below 100 nM.
